Measured values reported in US9266892B2, “Fused pyrazoles as FGFR inhibitors” (Incyte Corporation, priority 2012, dated 2016).

Experiments:
Assay type in all cases: biochemical
[1] = target: T1, FGFR1 (Homo sapiens, UniProt P11362); experiment: FGFR Enzymatic Assay (FRET peptide phosphorylation), FGFR1; conditions: FGFR1 0.02 nM, ATP 210 μM
T1 construct: purchased Millipore or Invitrogen
Description: (§1) The inhibitor potency of the Example compounds was measured in an enzyme assay that measures peptide phosphorylation using FRET measurements to detect product formation. Inhibitors were serially diluted in DMSO and a volume of 0.5 μL was transferred to the wells of a 384-well plate. For FGFR3, a 10 μL volume of FGFR3 enzyme (Millipore) diluted in assay buffer (50 mM HEPES, 10 mM MgCl2, 1 mM EGTA, 0.01% Tween-20, 5 mM DTT, pH 7.5) was added to the plate and pre-incubated for 5-10 minutes. Appropriate controls (enzyme blank and enzyme with no inhibitor) were included on the plate. The assay was initiated by the addition of a 10 μL solution containing biotinylated EQEDEPEGDYFEWLE peptide substrate (SEQ ID NO: 1) and ATP (final concentrations of 500 nM and 140 μM respectively) in assay buffer to the wells. The plate was incubated at 25° C. for 1 hr. The reactions were ended with the addition of 10 μL/well of quench solution (50 mM Tris, 150 mM NaCl, 0.5 mg/mL BSA, pH˜7.8, 30 mM EDTA with Perkin Elmer Lance Detection Reagents at 3.75 nM Eu-antibody PY20 and 180 nM APC-Streptavidin). The plate was allowed to equilibrate for 1 hour before scanning the wells on a PheraStar plate reader (BMG Labtech). The enzymes were purchased from Millipore or Invitrogen.
(§2) FGFR1 and FGFR2 were measured under equivalent conditions with the following changes in enzyme and ATP concentrations: FGFR1, 0.02 nM and 210 μM, respectively and FGFR2, 0.01 nM and 100 μM, respectively.
(§3) GraphPad prism3 was used to analyze the data. The IC50 values were derived by fitting the data to the equation for a sigmoidal dose-response with a variable slope. Y=Bottom+(Top−Bottom)/(1+10^((Log IC50−X)*HillSlope)) where X is the logarithm of concentration and Y is the response.

[2] = target: T2, FGFR3 (Homo sapiens, UniProt P22607); experiment: FGFR Enzymatic Assay (FRET peptide phosphorylation), FGFR3; conditions: ATP 140 μM, 25° C. for 1 hr
T2 construct: purchased Millipore
T2 sequence (P22607 23-806): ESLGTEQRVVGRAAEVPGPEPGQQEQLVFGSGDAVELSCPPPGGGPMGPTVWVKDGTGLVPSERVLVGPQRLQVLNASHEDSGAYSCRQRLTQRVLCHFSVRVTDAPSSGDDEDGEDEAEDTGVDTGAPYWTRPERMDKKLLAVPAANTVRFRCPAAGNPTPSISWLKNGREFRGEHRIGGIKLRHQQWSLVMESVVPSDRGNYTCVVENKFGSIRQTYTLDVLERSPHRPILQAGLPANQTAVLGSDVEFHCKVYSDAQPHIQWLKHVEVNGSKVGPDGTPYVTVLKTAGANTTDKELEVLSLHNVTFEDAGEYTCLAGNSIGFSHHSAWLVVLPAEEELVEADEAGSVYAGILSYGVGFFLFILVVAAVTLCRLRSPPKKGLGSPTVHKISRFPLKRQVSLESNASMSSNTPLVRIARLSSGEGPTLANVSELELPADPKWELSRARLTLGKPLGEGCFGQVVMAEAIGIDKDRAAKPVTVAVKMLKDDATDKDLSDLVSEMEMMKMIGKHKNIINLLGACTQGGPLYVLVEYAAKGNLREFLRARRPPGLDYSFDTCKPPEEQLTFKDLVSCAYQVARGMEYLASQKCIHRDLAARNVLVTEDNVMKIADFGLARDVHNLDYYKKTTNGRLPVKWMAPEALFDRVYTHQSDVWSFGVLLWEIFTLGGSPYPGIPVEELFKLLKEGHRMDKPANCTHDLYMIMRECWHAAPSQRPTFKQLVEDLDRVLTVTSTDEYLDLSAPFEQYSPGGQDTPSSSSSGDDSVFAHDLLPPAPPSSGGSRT
Description: as §1, §3

[3] = target: T3, FGFR2 (Homo sapiens, UniProt P21802); experiment: FGFR Enzymatic Assay (FRET peptide phosphorylation), FGFR2; conditions: FGFR2 0.01 nM, ATP 100 μM
T3 construct: purchased Millipore or Invitrogen
T3 sequence (P21802 22-821): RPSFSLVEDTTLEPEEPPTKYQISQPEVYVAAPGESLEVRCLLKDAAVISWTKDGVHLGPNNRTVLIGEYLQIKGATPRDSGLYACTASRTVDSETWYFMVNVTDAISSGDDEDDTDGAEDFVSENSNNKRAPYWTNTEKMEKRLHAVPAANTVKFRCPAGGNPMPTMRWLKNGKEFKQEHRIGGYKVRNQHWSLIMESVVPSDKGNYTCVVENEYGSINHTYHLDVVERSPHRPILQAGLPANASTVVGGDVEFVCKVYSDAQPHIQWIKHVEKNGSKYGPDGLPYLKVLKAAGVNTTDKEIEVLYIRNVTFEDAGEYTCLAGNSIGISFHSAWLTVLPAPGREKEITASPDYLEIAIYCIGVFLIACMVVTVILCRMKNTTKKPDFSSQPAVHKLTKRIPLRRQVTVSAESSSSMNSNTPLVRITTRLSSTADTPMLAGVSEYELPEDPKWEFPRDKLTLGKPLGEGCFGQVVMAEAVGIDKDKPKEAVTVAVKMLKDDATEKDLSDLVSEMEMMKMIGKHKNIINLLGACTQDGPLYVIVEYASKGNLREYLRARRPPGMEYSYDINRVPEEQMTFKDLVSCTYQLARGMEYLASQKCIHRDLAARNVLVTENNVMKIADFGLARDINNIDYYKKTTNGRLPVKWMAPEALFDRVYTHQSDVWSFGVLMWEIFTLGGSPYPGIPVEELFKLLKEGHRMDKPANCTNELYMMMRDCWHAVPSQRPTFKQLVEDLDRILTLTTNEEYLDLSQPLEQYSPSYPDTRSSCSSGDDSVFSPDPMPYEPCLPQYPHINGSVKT
Description: as §1, §2, §3

Measured: IC50

T1 sequence (P11362 22-822): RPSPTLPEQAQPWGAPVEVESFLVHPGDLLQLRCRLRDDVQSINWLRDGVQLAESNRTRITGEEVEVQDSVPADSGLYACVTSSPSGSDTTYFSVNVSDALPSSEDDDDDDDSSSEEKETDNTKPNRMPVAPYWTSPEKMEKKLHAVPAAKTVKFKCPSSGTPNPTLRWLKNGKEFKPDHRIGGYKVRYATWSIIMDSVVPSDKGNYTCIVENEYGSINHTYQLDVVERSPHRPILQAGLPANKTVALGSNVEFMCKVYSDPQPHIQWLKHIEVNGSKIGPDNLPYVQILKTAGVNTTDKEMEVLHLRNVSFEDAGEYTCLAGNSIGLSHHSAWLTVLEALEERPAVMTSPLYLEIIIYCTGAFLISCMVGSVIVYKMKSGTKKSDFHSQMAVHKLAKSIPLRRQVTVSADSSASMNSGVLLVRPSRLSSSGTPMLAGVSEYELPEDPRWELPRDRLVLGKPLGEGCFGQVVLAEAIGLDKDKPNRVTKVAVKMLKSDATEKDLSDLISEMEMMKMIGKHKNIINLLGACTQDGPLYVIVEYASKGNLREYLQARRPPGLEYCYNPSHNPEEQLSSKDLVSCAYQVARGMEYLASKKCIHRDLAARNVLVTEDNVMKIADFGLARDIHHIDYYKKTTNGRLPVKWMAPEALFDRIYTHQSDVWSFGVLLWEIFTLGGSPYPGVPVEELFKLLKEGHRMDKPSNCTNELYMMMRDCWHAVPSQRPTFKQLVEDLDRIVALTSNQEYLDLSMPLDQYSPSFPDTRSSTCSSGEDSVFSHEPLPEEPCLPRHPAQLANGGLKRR

COc1cc(OC)c(F)c(-c2ncc3c(-c4ccc5c(c4)CC(C(=O)N(C)C)O5)n[nH]c3n2)c1F (single isomer, unassigned) [Example 4, 5-[6-(2,6-Difluoro-3,5-dimethoxyphenyl)-1H-pyrazolo[3,4-d]pyrimidin-3-yl]-N,N-dimethyl-2,3-dihydro-1-benzofuran-2-carboxamide]
< 100 nM: all assays above

COc1cc(OC)c(F)c(-c2ncc3c(-c4ccc5c(c4)CC(C(=O)N(C)C)O5)n[nH]c3n2)c1F (single isomer, unassigned) [Example 5, 5-[6-(2,6-Difluoro-3,5-dimethoxyphenyl)-1H-pyrazolo[3,4-d]pyrimidin-3-yl]-N,N-dimethyl-2,3-dihydro-1-benzofuran-2-carboxamide]
< 100 nM: all assays above

COc1cc(OC)c(F)c(-c2cc3[nH]nc(-c4ccc5c(c4)CC(C(=O)N(C)C)O5)c3cn2)c1F (single isomer, unassigned) [Example 83, 5-[6-(2,6-Difluoro-3,5-dimethoxyphenyl)-1H-pyrazolo[4,3-c]pyridin-3-yl]-N,N-dimethyl-2,3-dihydro-1-benzofuran-2-carboxamide]
< 100 nM: all assays above

COc1cc(OC)c(F)c(-c2cc3[nH]nc(-c4ccc5c(c4)CC(C(=O)N(C)C)O5)c3cn2)c1F (single isomer, unassigned) [Example 84, 5-[6-(2,6-Difluoro-3,5-dimethoxyphenyl)-1H-pyrazolo[4,3-c]pyridin-3-yl]-N,N-dimethyl-2,3-dihydro-1-benzofuran-2-carboxamide]
< 100 nM: all assays above

COc1cc(OC)c(Cl)c(-c2ncc3c(-c4ccc5c(c4)CC(C(=O)N(C)C)O5)n[nH]c3n2)c1Cl (stereo not drawn) [Example 1, 5-[6-(2,6-Dichloro-3,5-dimethoxyphenyl)-1H-pyrazolo[3,4-d]pyrimidin-3-yl]-N,N-dimethyl-2,3-dihydro-1-benzofuran-2-carboxamide]
< 100 nM: all assays above

COc1cc(OC)c(Cl)c(-c2ncc3c(-c4ccc5c(c4)CCC(C(=O)N(C)C)O5)n[nH]c3n2)c1Cl (stereo not drawn) [Example 2, 6-[6-(2,6-Dichloro-3,5-dimethoxyphenyl)-1H-pyrazolo[3,4-d]pyrimidin-3-yl]-N,N-dimethylchromane-2-carboxamide]
< 100 nM: all assays above

COc1cc(OC)c(F)c(-c2ncc3c(-c4ccc5c(c4)CC(C(=O)N(C)C)O5)n[nH]c3n2)c1F (stereo not drawn) [Example 3, 5-[6-(2,6-Difluoro-3,5-dimethoxyphenyl)-1H-pyrazolo[3,4-d]pyrimidin-3-yl]-N,N-dimethyl-2,3-dihydro-1-benzofuran-2-carboxamide]
< 100 nM: all assays above

COc1cc(OC)c(F)c(-c2ncc3c(-c4ccc5c(c4)CCC(C(=O)N(C)C)O5)n[nH]c3n2)c1F (stereo not drawn) [Example 6, 6-[6-(2,6-Difluoro-3,5-dimethoxyphenyl)-1H-pyrazolo[3,4-d]pyrimidin-3-yl]-N,N-dimethylchromane-2-carboxamide]
< 100 nM: all assays above

COc1cc(OC)c(F)c(-c2ncc3c(-c4ccc5c(c4)CC(C(=O)N4CCN(C)CC4)O5)n[nH]c3n2)c1F (stereo not drawn) [Example 7, 6-(2,6-Difluoro-3,5-dimethoxyphenyl)-3-{2-[(4-methylpiperazin-1-yl)carbonyl]-2,3-dihydro-1-benzofuran-5-yl}-1H-pyrazolo[3,4-d]pyrimidine]
< 100 nM: all assays above

COc1cc(OC)c(Cl)c(-c2ncc3c(-c4ccc5c(c4)CCNC5=O)n[nH]c3n2)c1Cl [Example 8, 6-[6-(2,6-Dichloro-3,5-dimethoxyphenyl)-1H-pyrazolo[3,4-d]pyrimidin-3-yl]-3,4-dihydroisoquinolin-1(2H)-one]
< 100 nM: all assays above

COc1cc(OC)c(Cl)c(-c2ncc3c(-c4ccc5c(c4)CCN(C)C5=O)n[nH]c3n2)c1Cl [Example 9, 6-[6-(2,6-Dichloro-3,5-dimethoxyphenyl)-1H-pyrazolo[3,4-d]pyrimidin-3-yl]-2-methyl-3,4-dihydroisoquinolin-1(2H)-one]
< 100 nM: all assays above

CCN1CCc2cc(-c3n[nH]c4nc(-c5c(Cl)c(OC)cc(OC)c5Cl)ncc34)ccc2C1=O [Example 10, 6-[6-(2,6-Dichloro-3,5-dimethoxyphenyl)-1H-pyrazolo[3,4-d]pyrimidin-3-yl]-2-ethyl-3,4-dihydroisoquinolin-1(2H)-one]
< 100 nM: all assays above

COc1cc(OC)c(Cl)c(-c2ncc3c(-c4ccc5c(c4)CCN(C(C)C)C5=O)n[nH]c3n2)c1Cl [Example 11, 6-[6-(2,6-Dichloro-3,5-dimethoxyphenyl)-1H-pyrazolo[3,4-d]pyrimidin-3-yl]-2-isopropyl-3,4-dihydroisoquinolin-1(2H)-one]
< 100 nM: all assays above

COc1cc(OC)c(F)c(-c2ncc3c(-c4ccc5c(c4)CCNC5=O)n[nH]c3n2)c1F [Example 12, 6-[6-(2,6-Difluoro-3,5-dimethoxyphenyl)-1H-pyrazolo[3,4-d]pyrimidin-3-yl]-3,4-dihydroisoquinolin-1(2H)-one]
< 100 nM: all assays above

COc1cc(OC)c(F)c(-c2ncc3c(-c4ccc5c(c4)CCN(S(C)(=O)=O)C5)n[nH]c3n2)c1F [Example 13, 6-[6-(2,6-Difluoro-3,5-dimethoxyphenyl)-1H-pyrazolo[3,4-d]pyrimidin-3-yl]-2-(methylsulfonyl)-1,2,3,4-tetrahydroisoquinoline]
< 100 nM: all assays above

COc1ccc(C#Cc2n[nH]c3nc(-c4c(F)c(OC)cc(OC)c4F)ncc23)cc1 [Example 14, 6-(2,6-Difluoro-3,5-dimethoxyphenyl)-3-[(4-methoxyphenyl)ethynyl]-1H-pyrazolo[3,4-d]pyrimidine]
< 100 nM: all assays above

COc1cc(OC)c(F)c(-c2ncc3c(-c4ccc5c(c4)CN([C@H]4CC[C@H](O)CC4)C5=O)n[nH]c3n2)c1F [Example 15, 5-[6-(2,6-Difluoro-3,5-dimethoxyphenyl)-1H-pyrazolo[3,4-d]pyrimidin-3-yl]-2-(trans-4-hydroxycyclohexyl)isoindolin-1-one]
< 100 nM: all assays above

COc1cc(OC)c(F)c(-c2ncc3c(-c4ccc5c(c4)CN([C@H]4CC[C@@H](O)CC4)C5=O)n[nH]c3n2)c1F [Example 16, 5-[6-(2,6-Difluoro-3,5-dimethoxyphenyl)-1H-pyrazolo[3,4-d]pyrimidin-3-yl]-2-(cis-4-hydroxycyclohexyl)isoindolin-1-one]
< 100 nM: all assays above

COc1cc(OC)c(F)c(-c2ncc3c(-c4ccc(N5CCN(C)CC5)cc4)n[nH]c3n2)c1F [Example 17, 6-(2,6-Difluoro-3,5-dimethoxyphenyl)-3-[4-(4-methylpiperazin-1-yl)phenyl]-1H-pyrazolo[3,4-d]pyrimidine]
< 100 nM: all assays above

COc1cc(OC)c(F)c(-c2ncc3c(-c4ccc(N5CCN(C)CC5)nc4)n[nH]c3n2)c1F [Example 18, 6-(2,6-Difluoro-3,5-dimethoxyphenyl)-3-[6-(4-methylpiperazin-1-yl)pyridin-3-yl]-1H-pyrazolo[3,4-d]pyrimidine]
< 100 nM: all assays above

COc1cc(OC)c(F)c(-c2ncc3c(-c4ccnc(N5CCN(C)CC5)c4)n[nH]c3n2)c1F [Example 19, 6-(2,6-Difluoro-3,5-dimethoxyphenyl)-3-[2-(4-methylpiperazin-1-yl)pyridin-4-yl]-1H-pyrazolo[3,4-d]pyrimidine]
< 100 nM: all assays above

COc1cc(OC)c(F)c(-c2ncc3c(-c4ccc(OCCN(C)C)cc4)n[nH]c3n2)c1F [Example 20, 2-{4-[6-(2,6-Difluoro-3,5-dimethoxyphenyl)-1H-pyrazolo[3,4-d]pyrimidin-3-yl]phenoxy}-N,N-dimethylethanamine]
< 100 nM: all assays above

COc1cc(OC)c(F)c(-c2ncc3c(-c4ccc5c(c4)CN(C4CC4)C5=O)n[nH]c3n2)c1F [Example 21, 2-Cyclopropyl-5-[6-(2,6-difluoro-3,5-dimethoxyphenyl)-1H-pyrazolo[3,4-d]pyrimidin-3-yl]isoindolin-1-one]
< 100 nM: all assays above
